Values quoted from earlier work in patent US20050221347A1, “Inhibitors of binding between proteins and macromolecular ligands” (Thrasos, Inc., priority 1999, published 2005).

Target: alpha subunit of the interleukin-2 receptor (Homo sapiens, UniProt P60568)
Sequence (P60568 21-153): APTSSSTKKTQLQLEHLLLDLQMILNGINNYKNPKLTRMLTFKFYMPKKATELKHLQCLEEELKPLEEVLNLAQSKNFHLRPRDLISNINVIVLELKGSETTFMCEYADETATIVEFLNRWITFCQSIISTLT

Kd (binding to the alpha subunit of the interleukin-2 receptor, described in Tilley et al., J. Am. Chem. Soc 119:7589 (1997)): ~3 µM | inhibition of binding of interleukin 2 to the interleukin-2 receptor (result in words, Tilley et al. 1997): inhibits the binding of interleukin 2
SMILES: COC(=O)[C@H](Cc1ccc(C#Cc2ccccc2)cc1)NC(=O)C[C@H]1CCCN(C(=N)N)C1 [Structural Formula (I)]
